We go through eight molecules from patent US7304093B2, “Ketone compounds and compositions for cholesterol management and related uses” (Esperion Therapeutics, Inc., priority 2000, dated 2007).

Like-named read-outs stand apart in the source and are kept apart here.

A word on the melting point: it is the temperature, or range, at which the solid turns liquid. One may read the IC50 as the concentration at which inhibition is half-maximal.

The subject of one data set is female obese Zucker rats. The data set is described as follows: Serum lipid and glycemic control variables in chow-fed obese female Zucker rats, daily oral gavage for two weeks. The class given is in vivo, rat. The conditions noted are these: Rattus norvegicus; for change in vivo at 100 mg/kg: 100 mg/kg daily oral; for change in vivo at 59 mg/kg: 59 mg/kg daily oral; for change in vivo at 30 mg/kg: 30 mg/kg daily oral. The procedure:
Ten- to twelve-week old (400-500 grams) female Zucker fatty rats Cr1: (Zuc)-faBR were obtained from Charles River Laboratories. Animals were acclimated to the laboratory environment for seven days. During the acclimation and study period, animals were housed by group in shoebox polycarbonate cages on Cellu-Dri bedding. The temperature and humidity in the animals' quarters (68-78° F.; 30-75% RH) were monitored and the airflow in the room was sufficient to provide several exchanges per hour with 100% fresh filtered air. An automatic timing device provided an alternating 12-hour cycle of light and dark. Rats received pelleted Purina Laboratory Rodent Chow® (5001) prior to and during the drug intervention period except for a 6-hour phase prior to blood sampling. Fresh water was supplied ad libitum via an automatic watering system. Compounds were dissolved, suspended by mixing in a dosing vehicle consisting of 1.5% carboxymethylcellulose/0.2% Tween 20 or 20% ethanol and 80% polyethylene glycol-200 [v/v]. Dose volume of vehicle or vehicle plus each compound was set at 0.25% of body weight in order to deliver the appropriate dose. Doses were administered daily by oral gavage, approximately between 8-10 AM. Regarding blood sampling, animals were fasted for 6 hours prior to all blood collections. Prior to and after 7 days of dosing, a 1.0- to 2.0-mL sample of blood was collected by administering O2/CO2 anesthesia and bleeding from the orbital venous plexus. Following 14 days of dosing, blood was collected by cardiac puncture after euthanasia with CO2. All blood samples were processed for separation of serum and stored at −80° C. until analysis. Commercially available kits were used to determine serum triglycerides (Roche Diagnostic Corporation, Kit No. 148899 or Boehringer Mannheim, Kit No. 1488872), total cholesterol (Roche Diagnostic Corporation, Kit No. 450061), non-esterified fatty acids (Wako Chemicals, Kit No. 994-75409) and β-hydroxybutyrate (Wako Chemicals, Kit No. 417-73501 or Sigma Kit. No. 310-0) on a Hitachi 912 Automatic Analyzer (Roche Diagnostic Corporation). In some instances, an in-house cholesterol reagent was used to determine total serum cholesterol levels. Serum lipoprotein cholesterol levels were determined by lipoprotein profile analysis. Lipoprotein profiles were analyzed using gel-filtration chromatography on a Superose 6HR (1×30 cm) column equipped with on-line detection of total cholesterol as described by Kieft et al (Kieft, K. A.; Bocan, T. M.; Krause, B. R. Rapid on-line determination of cholesterol distribution among plasma lipoproteins after high-performance gel filtration chromatography. J. Lipid Res. 1991, 32, 859-866.). The total cholesterol content of each lipoprotein was calculated by multiplying the independent values determined for serum total cholesterol by the percent area of each lipoprotein in the profile. The percent body weight gain and the ratio of liver to body weight is also determined. Selected data are shown as absolute values or as a percent change of the pretreatment values in Tables 8 and 9.
Select compounds (214c, 210c, and 210g) were further evalutated in the Zucker rat by performing a full dose response and measuring additional scrum variables including markers for diabetes (Tables 10-12).

The next data set has as its system primary rat hepatocytes. The data set is described as follows: Inhibition of lipid synthesis ([1-14C]-acetate incorporation) in primary cultures of rat hepatocytes. The class given is cell-based. The conditions noted are these: Hepatocyte, 4 h incubation with [1-14C]-acetate. The method, then:
Compounds were tested for inhibition of lipid synthesis in primary cultures of rat hepatocytes. Male Sprague-Dawley rats were anesthetized with intraperitoneal injection of sodium pentobarbital (80 mg/kg). Rat hepatocytes were isolated essentially as described by the method of Seglen (Seglen, P. O. Hepatocyte suspensions and cultures as tools in experimental carcinogenesis. J. Toxicol. Environ. Health 1979, 5, 551-560). Hepatocytes were suspended in Dulbecco's Modified Eagles Medium containing 25 mM D-glucose, 14 mM HEPES, 5 mM L-glutamine, 5 mM leucine, 5 mM alanine, 10 mM lactate, 1 mM pyruvate, 0.2% bovine serum albumin, 17.4 mM non-essential amino acids, 20% fetal bovine serum, […] and 20 μg/mL gentamycin) and plated at a density of 1.5×10^5 cells/cm^2 on collagen-coated 96-well plates. Four hours after plating, media was replaced with the same media without serum. Cells were grown overnight to allow formation of monolayer cultures. Lipid synthesis incubation conditions were initially assessed to ensure the linearity of [1-^14C]-acetate incorporation into hepatocyte lipids for up to 4 hours. Hepatocyte lipid synthesis inhibitory activity was assessed during incubations in the presence of 0.25 μCi [1-^14C]-acetate/well (final radiospecific activity in assay is 1 Ci/mol) and 0, 1, 3, 10, 30, 100 or 300 μM of compounds for 4 hours. At the end of the 4-hour incubation period, medium was discarded and cells were washed twice with ice-cold phosphate buffered saline and stored frozen prior to analysis. To determine total lipid synthesis, 170 μl of MicroScint-E® and 50 μl water was added to each well to extract and partition the lipid soluble products to the upper organic phase containing the scintillant. Lipid radioactivity was assessed by scintillation spectroscopy in a Packard TopCount NXT.

[1] abbreviates: 168 h, 1 wk, Table 9, read-out: HDL-Cholesterol, Percent Change from Pre-Treatment.
Where [2] appears, read: 168 h, 1 wk, Table 9, read-out: NonHDL-Cholesterol, Percent Change from Pre-Treatment.
The mark [3] stands for this setting: 168 h, 1 wk, Table 9, read-out: TG, Percent Change from Pre-Treatment.
Where [4] appears, read: 336 h, 2 wk, Table 9, read-out: HDL-Cholesterol, Percent Change from Pre-Treatment.
Setting [5] is: 336 h, 2 wk, Table 9, read-out: NonHDL-Cholesterol, Percent Change from Pre-Treatment.
[6] abbreviates: 336 h, 2 wk, Table 9, read-out: TG, Percent Change from Pre-Treatment.
The mark [7] stands for this setting: Table 7, ranges: confidence of estimate insufficient to assign a value.

In the case of `CC(C)(CCCCCCCC(=O)CCCCCCCC(C)(C)C(=O)O)C(=O)O` [Compound 107n, 10-Oxo-2,2,18,18-tetramethyl-nonadecanedioic acid], the melting point was 74 to 77 °C. Further, in the data set on female obese Zucker rats (168 h, 1 wk, 100% = 2-fold increase, Table 8, read-out: HDL-Cholesterol, Percent Change from Pre-Treatment), the change in vivo at 100 mg/kg came to 44%. Also, the change in vivo at 100 mg/kg in the data set on female obese Zucker rats (168 h, 1 wk, 100% = 2-fold increase, Table 8, read-out: NonHDL-Cholesterol, Percent Change from Pre-Treatment) is -80%. Further, the change in vivo at 100 mg/kg in the data set with female obese Zucker rats (168 h, 1 wk, 100% = 2-fold increase, Table 8, read-out: TG, Percent Change from Pre-Treatment) was -85%. Also, in the data set with female obese Zucker rats (336 h, 2 wk, 100% = 2-fold increase, Table 8, read-out: HDL-Cholesterol, Percent Change from Pre-Treatment), the change in vivo at 100 mg/kg turned out to be 86%. Further, in the data set with female obese Zucker rats (336 h, 2 wk, 100% = 2-fold increase, Table 8, read-out: NonHDL-Cholesterol, Percent Change from Pre-Treatment), the change in vivo at 100 mg/kg was -45%. In the data set with female obese Zucker rats (336 h, 2 wk, 100% = 2-fold increase, Table 8, read-out: TG, Percent Change from Pre-Treatment), the change in vivo at 100 mg/kg was -64%. In the data set with primary rat hepatocytes (Table 6), the IC50 came to 10 µM.

Regarding `CC(C)(CCCCCC(=O)CCCCC(C)(C)C(=O)O)C(=O)O` [Compound 226, 2,2,13,13-Tetramethyl-7-oxotetradecanedioc acid], the melting point fell in the range of 61 to 62 °C. Also, in the data set on female obese Zucker rats (setting [1]), the change in vivo at 100 mg/kg came out at 240%. Also, the change in vivo at 100 mg/kg in the data set with female obese Zucker rats (setting [2]) was -30%. In addition, the change in vivo at 100 mg/kg with female obese Zucker rats (setting [3]) was -65%. In the data set with female obese Zucker rats (setting [4]), the change in vivo at 100 mg/kg was determined as 72%. For the same molecule, the change in vivo at 100 mg/kg with female obese Zucker rats (setting [5]) was -51%. Moreover, the change in vivo at 100 mg/kg in the data set with female obese Zucker rats (setting [6]) was -62%. Also, in the data set on primary rat hepatocytes (setting [7]), the IC50 is 3 µM.

Molecule `CC(CCCC(=O)CCCC(C)(C(=O)O)c1ccccc1)(C(=O)O)c1ccccc1` (stereo not shown) [Compound 210b, 2,10-Dimethyl-6-oxo-2,10-diphenylundecanedioic acid] registered a melting point of 44 to 46 °C. Further, the change in vivo at 100 mg/kg in the data set on female obese Zucker rats (setting [1]) stood at 4%. Besides, the change in vivo at 100 mg/kg in the data set with female obese Zucker rats (setting [2]) amounted to 36%. Also, the change in vivo at 100 mg/kg with female obese Zucker rats (setting [3]) came out at 10%. In addition, in the data set on female obese Zucker rats (setting [4]), the change in vivo at 100 mg/kg is 12%. Moreover, the change in vivo at 100 mg/kg with female obese Zucker rats (setting [5]) was 65%. Further, in the data set on female obese Zucker rats (setting [6]), the change in vivo at 100 mg/kg stood at 26%.

In turn, `CC(C)(Cc1cccc(C(=O)c2cccc(CC(C)(C)C(=O)O)c2)c1)C(=O)O` [Compound 231, 3-{3-[3-(2-Carboxy-2-methylpropyl)-benzoyl]-phenyl}-2,2-dimethylpropionic acid] registered a melting point of 46 to 48 °C. Besides, the change in vivo at 59 mg/kg in the data set on female obese Zucker rats (setting [1]) amounted to 2%. Besides, the change in vivo at 59 mg/kg with female obese Zucker rats (setting [2]) is -43%. The change in vivo at 59 mg/kg with female obese Zucker rats (setting [3]) was -24%. Further, the change in vivo at 59 mg/kg in the data set on female obese Zucker rats (setting [4]) came to 7%. The change in vivo at 59 mg/kg with female obese Zucker rats (setting [5]) worked out at 34%. Besides, the change in vivo at 59 mg/kg with female obese Zucker rats (setting [6]) stood at 7%.

For the molecule `CC(C)(CO)Cc1cccc(C(=O)c2cccc(CC(C)(C)CO)c2)c1` [Compound 232, Bis[3-(3-hydroxy-2,2-dimethylpropyl)-phenyl]-methanone], the change in vivo at 100 mg/kg in the data set on female obese Zucker rats (setting [1]) was 1%; in the data set on female obese Zucker rats (setting [2]), -15%; in the data set on female obese Zucker rats (setting [3]) it was -29%; in the data set with female obese Zucker rats (setting [4]), -11%; in the data set on female obese Zucker rats (setting [5]), -5%; in the data set with female obese Zucker rats (setting [6]), -8%. In addition, the half-maximal inhibitory concentration (IC50) with primary rat hepatocytes (setting [7]) was 52 µM.

Take `CC(C)(CO)CCCC(=O)CCCC(C)(C)CO` [Compound 214a, 1,11-Dihydroxy-2,2,10,10-tetramethylundecan-6-one]: the change in vivo at 100 mg/kg is 24% in the data set on female obese Zucker rats (setting [1]); -23% with female obese Zucker rats (setting [2]); -31% in the data set on female obese Zucker rats (setting [3]); 2% in the data set with female obese Zucker rats (setting [4]); 28% in the data set with female obese Zucker rats (setting [5]); 0% in the data set on female obese Zucker rats (setting [6]). Besides, in the data set on primary rat hepatocytes (setting [7]), the IC50 is 27 µM.

With `CC(C)(CO)CCCCC(=O)CCCC(C)(C)CO` [Compound 217, 1,12-Dihydroxy-2,2,11,11-tetramethyldodecan-6-one], the change in vivo at 100 mg/kg with female obese Zucker rats (setting [1]) was 46%; in the data set on female obese Zucker rats (setting [2]), -26%; in the data set with female obese Zucker rats (setting [3]), -40%; in the data set with female obese Zucker rats (setting [4]) it was 48%; with female obese Zucker rats (setting [5]), 4%; in the data set on female obese Zucker rats (setting [6]) it was -11%. Also, the IC50 in the data set on primary rat hepatocytes (setting [7]) was 3 to 10 µM.

For `CC(CO)(CCCCC(=O)CCCCC(C)(CO)c1ccccc1)c1ccccc1` (stereo not shown) [Compound 214d, 1,13-Dihydroxy-2,12-dimethyl-2,12-diphenyltridecan-7-one], the change in vivo at 30 mg/kg in the data set with female obese Zucker rats (setting [1]) was -1%; in the data set on female obese Zucker rats (setting [2]), -30%; in the data set on female obese Zucker rats (setting [3]) it was -24%; with female obese Zucker rats (setting [4]) it was -27%; in the data set on female obese Zucker rats (setting [5]) it was 30%; in the data set with female obese Zucker rats (setting [6]) it was 20%. The IC50 with primary rat hepatocytes (setting [7]) was 100 to 300 µM.
